Data as given in the NIST ThermoML archive (doi:10.1021/acs.jced.7b00171).
Numbers after ± are expanded uncertainties.

Assay: Solid-liquid equilibrium temperature
Details: Crystal 1, visual observation

Solid-liquid equilibrium temperature (1310 kPa): 280.31 ± 0.26 K | Solid-liquid equilibrium temperature (3430 kPa): 281.53 ± 0.34 K | Solid-liquid equilibrium temperature (5310 kPa): 282.52 ± 0.41 K
SMILES: C1CCCCC1 [cyclohexane]
